Data reported in ChEMBL document CHEMBL6096644, “Synthesis and structure-affinity relationships of spirocyclic σ1 receptor ligands with tetrahydropyran scaffold” (Eur J Med Chem, 2025).

Tests used:
physchem = conditions: n-octanol/MOPS aqueous buffer, pH 7.4
Description: Distribution coefficient, logD of compound in n-Octanol/MOPS aqueous buffer at pH 7.4 by shake-flask method based mass spectrometry analysis

in vitro [1] = conditions: human, human serum
Description: Plasma protein binding in human serum by HPAC analysis

in vitro [2] = conditions: mouse, liver microsomes
Description: Metabolic stability in mouse liver microsomes assessed as parent compound remaining measured after 90 mins in presence of NADPH/H+ by HPLC analysis

Row | SMILES | logD (physchem) | fraction unbound (in vitro [1]) | remaining at 1.5 h (in vitro [2]) [%]
1 | Oc1cccc(CN2CCC3(CC2)CC(CCc2ccccc2)CCO3)c1 (stereo not given) | 3.33 |  | 
2 | c1cc2c(cc1C1CCOC3(CCN(CC4CCCC4)CC3)C1)CCO2 (stereo not given) | 2.34 |  | 
3 | O=c1oc2ccccc2n1C1CCOC2(CCN(Cc3ccccc3)CC2)C1 (stereo not given) | 2.42 | 0.15 | 74
